Assay results from patent US6046177A, “Sulfoalkyl ether cyclodextrin based controlled release solid pharmaceutical formulations” (Cydex, Inc., priority 1999, dated 2000).
Converted amounts (≈) assume the structure as drawn.

What was measured:
[1] = cited from earlier work; for dissolution of complex vs. physical mixture: β-cyclodextrin complex vs. physical mixture
[2] = gels with methyl-β-cyclodextrin; cited from earlier work
[3] = in words; cited from earlier work
pKa of dipyridamole = format: physicochemical; conditions: basic drug
[4] = In vitro release of dipyridamole from coated tablets (USP apparatus II); format: physicochemical
Method: The sample volume was 20 μl and the UV detection wavelength was […] (Shimadzu 6A, Shimadzu, Japan). A mobile phase consisting of 70% methanol and 30% ammonium phosphate buffer (pH 5.0) was passed through the column at a flow rate of 1.5 ml/min. (SBE)7m -β-CD was detected by using a fluorimetric assay, 0.2 ml of a 1 mM solution of 2,6-toluidino-naphthalene-sulfonate to 0.8 ml of the sample. This solution was then excited at 325 nm and the emitted fluorescence detected at 455 nm using a Perkin 25 Elmer (Perkin-Elmer, CT) Fluorescence detector.
The ground physical mixture was then sieved through a 200 mesh (75 μm) screen. This process was repeated twice. This mixture was always stored in a desiccator when not used.
The dissolution die consists of a cylindrical stainless steel center-piece,a stainless steel platform, a stainless steel top cover, two Teflon sheets (top and bottom) and Teflon inserts. The cylindrical center-piece has a hole (radius=7.5 mm ) at the center in which the tablet is compressed. Both, the stainless steel top cover and top Teflon sheet have holes of same radius at the center. The center-piece was inverted and screwed onto the platform. […] The tablet core was compressed with a force of one ton for one minute using Carver press (Fred Carver Inc., NJ). The punch was carefully removed from the center-piece.
™ coatings were made by dissolving 5% (w/w) of […]™ R or S (Huls America, NJ), 5% of urea (SIGMA, MO) or polyethylene glycol (PEG 3350, SIGMA, MO) and 0.75% of triethyl Citrate (TEC, SIGMA, MO) in 89.25% ethanol. This was carried out until a clear solution was obtained. Cellulose acetate (CA-320S7 Eastman Chemical Co., TN) and hydroxypropyl methylcellulose phthalate (HPMCP, Eastman Chemical Co., TN) polymeric solutions were made by dissolving 5% of polymers and 1% of TEC in 94% of solvent containing equal amounts of methylene chloride and methanol. The ratio of CA to HPMCP was varied from 50:50 to 75:25 but the total amount of polymer was always maintained at 5%. The dissolution was carried out until clear solutions were obtained.
This coating solution was then air sprayed directly on the tablet surface under constant air flow (approx. 70° C.). The coated tablets were dried additionally for a period of 15 minutes under the same air flow. The tablets were additionally dried for a period of 12-16 hr. at room temperature. The thickness of the membrane was assumed to be the difference of thickness of the tablet after and before coating. The thickness measurements were carried out using a Screw-gauge micrometer.
The release studies for tablets coated with Eudragit L and CA: HPMCP were conducted by placing the dissolution die in a USP dissolution apparatus II (Vanderkamp 600, VanKel Industries Inc.) containing 450 ml of HCl (pH 1.5, 37° C. and 100 r.p.m.). […] 1.5 ml samples were collected periodically and equal amounts of dissolution medium was returned to the dissolution vessel. For the CA: HPMCP coated tablet, 100% release was determined by removing the membrane from the die and allowing the drug dissolution to be complete. The release experiments for tablets coated with Eudragit were conducted similarly in 450 ml of HCl for the first 2 hours, then placed in a phosphate buffer (pH 6.4) for additional 5 hr. and then placed in a phosphate buffer (pH 7.2). The release conditions and procedures were as described above.
0.5 ml of the sample was diluted by half in the mobile phase and the diluted samples were then analyzed using HPLC assay to determine drug concentrations as described in a later section.

physchem = test: physchem
Method: (SBE)7 -β-CD (0-0.1 M) solutions were made in different buffer solutions at pH values ranging from 4.0 to 7.0 (citrate for 4 & 5; phosphate for 6 &7). […] The solutions were centrifuged for 10 min. at 2500 rpm. 20 μl of the supernatant was carefully sampled using a 100 μl gas-tight Hamilton Syringe (Hamilton, Nev.), diluted with mobile phase and analyzed by HPLC. The solubility data was then used to determine the binding constant using the method of Higuchi and Connors for AL-type phase behavior.

[5] = In vitro release of dipyridamole from coated tablets (USP apparatus II); format: physicochemical; conditions: for release of DP without SAE-CD: core DP, citric acid, fructose-lactose
[6] = Release of prednisolone and SBE7 β-CD from uncoated controlled release tablet cores; format: physicochemical; conditions: for effect of HPMC viscosity 15,000 to 100,000 cps on release: 5% PD
Method: The above ingredients are used to make a 300 mg tablet core having a controlled release profile. The ingredients were blended by hand and individual tablets were prepared on a carver press under a pressure of 1 ton for 7 seconds. The tablets were prepared using a 5/16" standard cup concave tooling. The determination of the release profile by dissolution was conducted according to USP method 2 at 37°, 100 rpm with paddles in a 900 ml water bath. The amounts of prednisolone (PD) released was determined by HPLC, and the amount of SBE7 -βCD released was determined by TNS as described herein.

[7] = osmotic pump tablet with (SBE)7M -β-CD; cited from earlier work

For `CC(=O)Nc1ccc(O)cc1` [acetaminophen], the “dissolution of complex vs. physical mixture” value [1] is listed as “significantly better, dissolution profile”.
For `N=C(N)NCC1CCC(C(=O)Oc2ccccc2C(=O)OCc2ccccc2)CC1` (centres unmarked) [benexate], the “solubility of complex vs. physical mixture” value ([1]; cyclodextrin complex vs. physical mixture or neat) is given as “significantly increased solubility”.
In the case of `O=C1CN=C(c2ccccc2Cl)c2cc([N+](=O)[O-])ccc2N1` [clonazepam], the “flux rate of clonazepam” value [2] is listed as “improves the flux rate”.
For `OCCN(CCO)c1nc(N2CCCCC2)c2nc(N(CCO)CCO)nc(N3CCCCC3)c2n1` [dipyridamole], the bioavailability [3] is given as “low and variable bioavailability”, the pKa (pKa of dipyridamole) is given as 6.28 and the type of release ([4]; 90 μm film, CA:HPMCP 1:1, FIG. 14) is given as “delayed release”. The type of release ([4]; 105 μm film, CA:HPMCP 6:4, FIG. 14) was “combined delayed and controlled release”, the “effect of film thickness on release profile” value ([4]; CA/HPMCP film 90 μm to 170 μm, FIG. 13) was “did not appear to substantially affect the release profile” and the type of release ([4]; CA:HPMCP 1:1 film, FIG. 12) was “combined delayed and controlled release”. The “effect of film thickness on release profile” value ([4]; EUDRAGIT-L/urea film, physical mixture core, FIG. 10) was “independent of film thickness but dependent upon solution pH”, the “pH at which DP is released” value ([4]; EUDRAGIT-S and urea film, FIG. 11) was about 7.2 and the “pH at which DP is released” value ([4]; comparison (EUDRAGIT-L and urea film)) was “about 6.8”. The solubility at 24 h (physchem; citrate buffer with sbe7 β-cd, pH 4) was 16000 µg/mL (≈ 31700 µM), the solubility at 24 h (physchem; citrate buffer, pH 4, aqueous buffer) was 1990 µg/mL (≈ 3940 µM) and the solubility at 24 h (physchem; phosphate buffer with sbe7 β-cd, pH 7) was 504 µg/mL (≈ 999 µM). The solubility at 24 h (physchem; phosphate buffer, pH 7, aqueous buffer) was 3.56 µg/mL (≈ 7.05 µM), the solubility (physchem; water) was 3.6 µg/mL (≈ 7.13 µM) and the “release profile, SBE7 β-CD vs. DP” value ([5]; EUDRAGIT-L film 150 μm, pH raised from 1.5 to 6.8 after two hours, FIG. 9) was “substantially the same release profile”. For the same molecule, the release delay ([5]; EUDRAGIT-L film, pH 1.5 to 6.8, FIG. 9) was “two hour delay”, the “release of DP without SAE-CD” value ([5]; CA:HPMCP (50:50) 120 μm film) was “no release of DP was obtained” and the “release of DP without SAE-CD” value ([5]; EUDRAGIT-L and urea (50:50) 120 μm film) was “incomplete release of DP was observed”.
In the case of `COc1ccc2c(c1)c(CC(=O)O)c(C)n2C(=O)c1ccc(Cl)cc1` [indomethacin], the “dissolution of complex vs. physical mixture” value [1] is listed as “significantly better, dissolution profile”.
In the case of `CCC1(c2ccccc2)C(=O)NC(=O)NC1=O` [phenobarbitone], the “controlled dissolution, preformed complex vs. physical mixture” value ([1]; β-cyclodextrin) is given as “preformed complex performs substantially better than the physical mixture”.
For `CN1C(C(=O)Nc2ccccn2)=C(O)c2ccccc2S1(=O)=O` [piroxicam], the “dissolution of complex vs. physical mixture” value [1] is given as “significantly better, dissolution profile”.
For `C[C@]12C=CC(=O)C=C1CC[C@@H]1[C@@H]2[C@@H](O)C[C@@]2(C)[C@H]1CC[C@]2(O)C(=O)CO` [prednisolone], the “effect of HPMC viscosity 15,000 to 100,000 cps on release” value ([6]; 35% SAE-CD, 50% HPMC, 10% lactose, FIG. 20) was “substantially independent of the viscosity of the HPMC”, the “effect of HPMC viscosity 15,000 to 100,000 cps on release” value ([6]; 70% SAE-CD, 25% HPMC, FIG. 19) was “the rate of delivery of the PD and the overall amount of PD delivered increases” and the “effect of decreasing SAE-CD (increasing lactose) on delivery” value ([6]; PD 5%, HPMC approximately 25%, FIG. 17) was “the rate of delivery of the PD and the overall amount of PD delivered decrease”. The “effect of increasing release rate modifier ratio on release rate” value ([6]; PD 5%, SAE-CD 35%, HPMC 25% to 50%, FIG. 18) was “the release rate of the drug is decreased”, the PD released ([6]; control HPMC K100M, no cyclodextrin, eleven hours, FIG. 19) was “approximately 50 % by weight” and the PD released ([6]; control HPMC K100M, no cyclodextrin, six hours, FIG. 19) was “approximately 30 % by weight”. For the same molecule, the PD released ([6]; no cyclodextrin, HPMC, after eleven hours, FIG. 16) was “approximately 50 % by weight”, the drug released ([6]; release rate modifier:drug approximately 5:1, 12 hours, FIG. 18) was 75-90% and the drug released ([6]; release rate modifier:drug approximately 5:1, about six hours, FIG. 18) was 65-75%. The drug released ([6]; release rate modifier:drug approximately 10:1, 12 hours, FIG. 18) was 55-60%, the drug released ([6]; release rate modifier:drug approximately 10:1, about six hours, FIG. 18) was 40-50% and the PD released ([6]; with SAE-CD, HPMC, approximately six hours, FIG. 16) was “greater than 90%”. The PD released ([6]; with SAE-CD, HPMC, eleven hours, FIG. 16) was “substantially complete delivery of the drug” and the release profile [7] was “sustained release profile is provided by the osmotic pump tablet so long as the semipermeable membrane is present”.
In the case of `CN1C(=O)C(O)N=C(c2ccccc2)c2cc(Cl)ccc21` (centres unmarked) [temazepam], the “dissolution of complex vs. physical mixture” value [1] is given as “In only one of several examples did Martini et al. obtain a physical mixture formulation having a dissolution profile comparable to that of the preformed complex formulation”.
For `Cc1cccc(N(C)C(=S)Oc2ccc3ccccc3c2)c1` [tolnaftate], the “dissolution of complex vs. physical mixture” value [1] is given as “improved dissolution over the physical mixture or free drug”.
In the case of `CC(=O)CC(c1ccccc1)c1c(O)c2ccccc2oc1=O` (centres unmarked) [warfarin], the “dissolution of complex vs. physical mixture” value [1] is given as “significantly better, dissolution profile”.
